Measured values: ChEMBL document CHEMBL1121945, “Nitrogen bridgehead compounds. 18. New antiallergic 4H-pyrido[1,2-a]pyrimidin-4-ones. 1” (J Med Chem, 1982)

Legend:
[1] = species on record: Rattus norvegicus; assay: Inhibition of histamine release from sensitized rat mast cells in vitro; format: functional
[2] = system: Rattus norvegicus; assay: Inhibition of rat passive cutaneous anaphylaxis (PCA) reaction after intravenous administration; format: functional; conditions: for ED50: Rattus norvegicus, iv, read-out: ID50 (the source's name)
[3] = system: Rattus norvegicus; assay: Inhibition of rat passive cutaneous anaphylaxis (PCA) reaction was determined after oral administration; format: functional; conditions: for ED50: read-out: ID50 (the source's name)
[4] = species on record: Rattus norvegicus; assay: The compound was tested for its ability to inhibit histamine release from sensitized rat mast cells in vitro; format: functional, cell-based
[5] = Rattus norvegicus, Mast cell, read-out: EC50

Structure (SMILES)	EC50 [1, 5] [µM]	ED50 [2] [µmol/kg]	ED50 ([3]; Rattus norvegicus, po) [µmol/kg]	other results
CNC(=O)c1ccc(N/N=C2\CCC(C)n3c2ncc(C(=O)O)c3=O)cc1 (configuration not stated)	100	9.6	> 100	–
CC1CC/C(=N\Nc2ccccc2O)c2ncc(C(=O)O)c(=O)n21 (configuration not stated)	–	0.26	> 100	EC50 ([1]; mast cells): 208 uM l-1
CC1CC/C(=N\Nc2ccccc2Br)c2ncc(C(=O)O)c(=O)n21 (configuration not stated)	–	–	> 320	–
CC1CC/C(=N\Nc2ccccc2I)c2ncc(C(=O)O)c(=O)n21 (configuration not stated)	–	–	> 1000	–
CC1CC/C(=N\Nc2ccccc2C(=O)O)c2nccc(=O)n21 (configuration not stated)	100	> 100	> 100	–
CC1CCC(=NNc2ccccc2)c2ncc(C(=O)O)c(=O)n21 (configuration not stated)	2.2	0.6	1.2	–
CC(=O)c1cccc(N/N=C2\CCC(C)n3c2ncc(C(=O)O)c3=O)c1 (configuration not stated)	–	–	> 1000	–
CC(=O)c1ccccc1N/N=C1\CCC(C)n2c1ncc(C(=O)O)c2=O (configuration not stated)	–	–	> 1000	–
COc1ccccc1N/N=C1\CCC(C)n2c1ncc(C(=O)O)c2=O (configuration not stated)	–	–	> 1000	–
Cc1cccc(N/N=C2\CCC(C)n3c2ncc(C(=O)O)c3=O)c1 (configuration not stated)	72.9	0.4	72.5	–
Cc1ccc(N/N=C2\CCC(C)n3c2ncc(C(=O)O)c3=O)cc1 (configuration not stated)	0.28	1.3	> 1000	–
CCOc1ccc(N/N=C2\CC[C@H](C)n3c2ncc(C(=O)O)c3=O)cc1	19.2	100	> 100	–
C[C@H]1CC/C(=N\Nc2ccc(O)cc2)c2ncc(C(=O)O)c(=O)n21	26.2	110	> 100	–
CCOc1ccc(N/N=C2\CCC(C)n3c2ncc(C(=O)O)c3=O)cc1 (configuration not stated)	17.6	1.6	> 100	–
CC1CC/C(=N\Nc2cccc(I)c2)c2ncc(C(=O)O)c(=O)n21 (configuration not stated)	–	–	> 1000	–
CC1CC/C(=N\Nc2ccc(Br)cc2)c2ncc(C(=O)O)c(=O)n21 (configuration not stated)	2	0.8	> 100	–
CCc1ccc(N/N=C2\CCC(C)n3c2ncc(C(=O)O)c3=O)cc1 (configuration not stated)	–	–	> 1000	–
CC1CC/C(=N\Nc2ccccc2[N+](=O)[O-])c2ncc(C(=O)O)c(=O)n21 (configuration not stated)	–	–	> 1000	–
CC1C/C(=N\Nc2ccccc2)c2ncc(C(=O)O)c(=O)n2C1 (configuration not stated)	13	5.7	> 320	–
CC1CC/C(=N\Nc2cccc(C(=O)O)c2)c2ncc(C(=O)O)c(=O)n21 (configuration not stated)	–	26.6	> 100	EC50 ([4]; Mast cell): 10 µM
CC1CC/C(=N\Nc2cccc(C(F)(F)F)c2)c2ncc(C(=O)O)c(=O)n21 (configuration not stated)	–	–	> 1000	–
CC1CC/C(=N\Nc2ccc(O)cc2)c2ncc(C(=O)O)c(=O)n21 (configuration not stated)	1.3	1.7	> 100	–
Cc1ccccc1N/N=C1\CCC(C)n2c1ncc(C(=O)O)c2=O (configuration not stated)	–	–	> 1000	–

Structure (SMILES)	EC50 [1, 5] [µM]	ED50 [2] [µmol/kg]	ED50 ([3]; Rattus norvegicus, po) [µmol/kg]	other results
CC1CCCc2ncc(C(=O)O)c(=O)n21 (configuration not stated)	–	240	–	–
CC1CC/C(=N\Nc2ccccc2Cl)c2ncc(C(=O)O)c(=O)n21 (configuration not stated)	–	–	> 1000	–
CC1CC/C(=N\Nc2ccccc2)c2ncc(C#N)c(=O)n21 (configuration not stated)	–	–	> 1000	–
CCOC(=O)c1cnc2n(c1=O)C(C)CC/C2=N\Nc1ccccc1 (configuration not stated)	–	–	> 1000	–
CC1CC/C(=N\Nc2cccc([N+](=O)[O-])c2)c2ncc(C(=O)O)c(=O)n21 (configuration not stated)	–	0.5	–	ED50 [3]: > 100 µmol/kg
CC1CC/C(=N\Nc2cccc(Br)c2)c2ncc(C(=O)O)c(=O)n21 (configuration not stated)	6.7	0.4	> 320	–
CC1CC/C(=N\Nc2ccccc2)c2ncc(C(N)=O)c(=O)n21 (configuration not stated)	–	–	> 1000	–
CC(=O)c1ccc(N/N=C2\CCC(C)n3c2ncc(C(=O)O)c3=O)cc1 (configuration not stated)	8.1	9.5	> 100	–
C[C@H]1CCC(=NNc2ccccc2)c2ncc(C(=O)O)c(=O)n21 (single isomer, unassigned; (-))	–	–	–	EC50 ([1]; mast cells, read-out: EC50): 8 µM; ID50 [2]: 54.8 µM/kg; ID50 [3]: >100 µM/kg
O=C(O)c1cc(=O)c2c(OCC(O)COc3cccc4oc(C(=O)O)cc(=O)c34)cccc2o1 [CROMOLYN SODIUM]	–	1	–	–
CC1CC/C(=N\Nc2ccc(F)cc2)c2ncc(C(=O)O)c(=O)n21 (configuration not stated)	1.2	12.2	> 1000	–
CC1CC/C(=N\Nc2ccc([N+](=O)[O-])cc2)c2ncc(C(=O)O)c(=O)n21 (configuration not stated)	8.9	0.8	> 320	–
C[C@@H]1CC/C(=N\Nc2ccc(O)cc2)c2ncc(C(=O)O)c(=O)n21	15.6	0.14	> 100	–
CCCCc1ccc(N/N=C2\CCC(C)n3c2ncc(C(=O)O)c3=O)cc1 (configuration not stated)	0.7	7.8	100	–
CCOC(=O)c1cnc2n(c1=O)C(C)CC/C2=N\Nc1ccccc1C(=O)O (configuration not stated)	100	10	–	–
CCOc1ccc(N/N=C2\CC[C@@H](C)n3c2ncc(C(=O)O)c3=O)cc1	1	0.2	> 100	–
CC1CC/C(=N\Nc2ccc(I)cc2)c2ncc(C(=O)O)c(=O)n21 (configuration not stated)	–	–	> 1000	–
CC1CC/C(=N\Nc2ccc(Cl)cc2)c2ncc(C(=O)O)c(=O)n21 (configuration not stated)	–	0.5	–	EC50 ([4]; Mast cell): 16.6 µM; ED50 [3]: > 100 µmol/kg
CC1CC/C(=N\Nc2cccc(C(=O)O)c2)c2nccc(=O)n21 (configuration not stated)	–	> 100	> 100	EC50 ([1]; mast cells): 655 uM l-1
CC1CC/C(=N\Nc2ccc(C(=O)O)cc2)c2ncc(C(=O)O)c(=O)n21 (configuration not stated)	–	7.6	–	EC50 ([1]; mast cells): 1000 uM l-1
CC1CC/C(=N\Nc2ccc(-c3ccccc3)cc2)c2ncc(C(=O)O)c(=O)n21 (configuration not stated)	4.4	1.1	> 100	–
CC1CC/C(=N\Nc2ccccc2F)c2ncc(C(=O)O)c(=O)n21 (configuration not stated)	1.2	5	> 1000	–
CC1CCC(=NNc2ccccc2C(=O)O)c2ncc(C(=O)O)c(=O)n21 (stereo in doubt; 56)	–	–	–	EC50 [4]: 1300 uM l-1; ID50 [2]: 0.48 µM/kg

Structure (SMILES)	EC50 [1, 5] [µM]	ED50 [2] [µmol/kg]	ED50 ([3]; Rattus norvegicus, po) [µmol/kg]	other results
COc1ccc(N/N=C2\CCC(C)n3c2ncc(C(=O)O)c3=O)cc1 (configuration not stated)	–	0.8	7.6	EC50 ([1]; mast cells): 128 uM l-1
CC1CC/C(=N\Nc2ccc(C(F)(F)F)cc2)c2ncc(C(=O)O)c(=O)n21 (configuration not stated)	0.28	38.6	> 1000	–
CC1CC/C(=N\Nc2ccc(C(=O)O)cc2)c2nccc(=O)n21 (configuration not stated)	–	> 100	> 100	EC50 ([1]; mast cells): 450 uM l-1
CC1CC/C(=N\Nc2ccccc2)c2nccc(=O)n21 (configuration not stated)	–	–	> 100	–
CCOC(=O)c1cccc(N/N=C2\CCC(C)n3c2ncc(C(=O)O)c3=O)c1 (configuration not stated)	–	–	> 100	–
CC1CC/C(=N\Nc2ccc(CC(=O)O)cc2)c2ncc(C(=O)O)c(=O)n21 (configuration not stated)	3.4	60.9	> 100	–
CC1CC/C(=N\Nc2ccc(C3CC3)cc2)c2ncc(C(=O)O)c(=O)n21 (configuration not stated)	1	41.1	100	–
CC1CCC(=NNc2ccccc2C(=O)O)c2ncc(C(=O)O)c(=O)n21 (stereo in doubt; 57)	–	–	> 100	EC50 ([1]; mast cells): 569 uM l-1; ID50 [2]: 0.5 µM/kg
O=C(O)c1cnc2n(c1=O)CCC/C2=N\Nc1ccccc1	2.9	31.6	> 100	–
CCOC(=O)c1cnc2n(c1=O)C(C)CC/C2=N\Nc1ccc(C(=O)O)cc1 (configuration not stated)	66	100	–	–
CC1CC/C(=N\Nc2cccc(Cl)c2)c2ncc(C(=O)O)c(=O)n21 (configuration not stated)	–	0.6	> 100	EC50 ([1]; mast cells): 311 uM l-1
CC1CC/C(=N\Nc2ccccc2CCO)c2ncc(C(=O)O)c(=O)n21 (configuration not stated)	–	10.8	> 100	EC50 ([1]; mast cells): 330 uM l-1
CC(C)c1ccc(N/N=C2\CCC(C)n3c2ncc(C(=O)O)c3=O)cc1 (configuration not stated)	1.2	2.4	> 100	–
C[C@H]1CCC(=NNc2ccccc2)c2ncc(C(=O)O)c(=O)n21 (single isomer, unassigned; (+))	–	–	–	EC50 ([1]; mast cells, read-out: EC50): 0.6 µM; ID50 [2]: 0.3 µM/kg; ID50 [3]: 1 µM/kg
CC1CCn2c(ncc(C(=O)O)c2=O)/C1=N/Nc1ccccc1 (configuration not stated)	5.4	32	> 320	–
CCOc1cccc(N/N=C2\CCC(C)n3c2ncc(C(=O)O)c3=O)c1 (configuration not stated)	4.7	0.2	> 100	–
CC1CC/C(=N\Nc2ccccc2)c2ncc(CC(=O)O)c(=O)n21 (configuration not stated)	–	100	–	EC50 ([1]; mast cells): 430 uM l-1
CCOc1ccccc1N/N=C1\CCC(C)n2c1ncc(C(=O)O)c2=O (configuration not stated)	–	–	> 1000	–
CCOC(=O)c1cnc2n(c1=O)C(C)CC/C2=N\Nc1cccc(C(=O)O)c1 (configuration not stated)	–	100	–	EC50 ([1]; mast cells): 740 uM l-1
CC1CCC(=NNc2ccccc2C(=O)O)c2ncc(C(=O)O)c(=O)n21 (single isomer, unassigned; (+))	–	–	–	EC50 ([1]; mast cells): 1100 uM l-1; ID50 [2]: 37.1 µM/kg
CC1CC/C(=N\Nc2ccccc2)c2ncc(C(=O)NN)c(=O)n21 (configuration not stated)	–	–	> 1000	–
CC1CC/C(=N\Nc2ccccc2C(F)(F)F)c2ncc(C(=O)O)c(=O)n21 (configuration not stated)	–	–	> 1000	–
